Data taken from patent US8410310B2, “Trypsin-like serine protease inhibitors, and their preparation and use” (The Medicines Company (Leipzig) GmbH, priority 2006, dated 2013).

Legend:
Thrombin = Thrombin (Homo sapiens, UniProt P00734); assay: Inhibition constants against purified human serine proteases: thrombin; type: biochemical; parameters: Human factor Xa, factor XIa, factor XIIa, thrombin, and plasma kallikrein were purchased; purchased Enzyme Research Laboratories (via Haemochrom, Essen); settings: 50 mM Tris-HCl pH 8.0, 154 mM NaCl, Pefachrom tPA
Text: Aprotinin and tranexamic acid were purchased from SIGMA (Schnelldorf, Germany). Human factor Xa, factor XIa, factor XIIa, thrombin, and plasma kallikrein were purchased from Enzyme Research Laboratories, and human plasmin from Chromogenix (both via Haemochrom, Essen, Germany). Various synthetic peptide chromogenic substrates used for determination of inhibition constants were obtained from Pentapharm (Basel, Switzerland), Roche (Mannheim, Germany), and Chromogenix: Chromozyme PL for plasmin, S2302 for plasma kallikrein, Pefachrome FXa for factor Xa, Chromozym XII for FXIIa, Pefachrom tPA for thrombin, and Pefachrome PCa for factor XIa. […]
Inhibition of purified human serine proteases by Compound No. 3 and aprotinin was studied using the established methods described herein in Example 3 (i.e., Stürzebecher et al., 1997). […] Steady-state velocities of substrate conversion were obtained from progress curves generated by continuous monitoring of the absorbance at 405 nm with a microplate reader (Multiskan Ascent, Thermo Electron Corporation, Dreieich, Germany). […] Inhibition constants (Ki) were calculated from non-linear fits of individual data sets to the Michaelis-Menten equation for competitive inhibitors using an enzyme kinetic analysis software (SIGMA Plot® 9.0 Enzyme Kinetics Module, SSI, San Jose, Calif.). […]

Human factor Xa = molecular target: T1, Human factor Xa (Homo sapiens, UniProt P00742); assay: Inhibition constants against purified human serine proteases: FXa; type: biochemical; settings: for Ki: 50 mM Tris-HCl pH 8.0, 154 mM NaCl, Pefachrome FXa
T1 construct: Human factor Xa, factor XIa, factor XIIa, thrombin, and plasma kallikrein were purchased; purchased Enzyme Research Laboratories (via Haemochrom, Essen)
Text: Aprotinin and tranexamic acid were purchased from SIGMA (Schnelldorf, Germany). Human factor Xa, factor XIa, factor XIIa, thrombin, and plasma kallikrein were purchased from Enzyme Research Laboratories, and human plasmin from Chromogenix (both via Haemochrom, Essen, Germany). Various synthetic peptide chromogenic substrates used for determination of inhibition constants were obtained from Pentapharm (Basel, Switzerland), Roche (Mannheim, Germany), and Chromogenix: Chromozyme PL for plasmin, S2302 for plasma kallikrein, Pefachrome FXa for factor Xa, Chromozym XII for FXIIa, Pefachrom tPA for thrombin, and Pefachrome PCa for factor XIa. Tissue-type plasminogen activator was obtained from Boehringer Ingelheim (Ingelheim, Germany). INTEM, EXTEM and STARTEM reagents and disposables for ROTEM® measurements were obtained from Pentapharm (Munich, Germany).
Inhibition of purified human serine proteases by Compound No. 3 and aprotinin was studied using the established methods described herein in Example 3 (i.e., Stürzebecher et al., 1997). Enzyme kinetic experiments were carried out in 96-well flat-bottom plates (Brand, Wertheim, Germany) in 50 mM Tris-HCl pH 8.0, 154 mM NaCl in the presence of different substrate and inhibitor concentrations. Steady-state velocities of substrate conversion were obtained from progress curves generated by continuous monitoring of the absorbance at 405 nm with a microplate reader (Multiskan Ascent, Thermo Electron Corporation, Dreieich, Germany). […] Inhibition constants (Ki) were calculated from non-linear fits of individual data sets to the Michaelis-Menten equation for competitive inhibitors using an enzyme kinetic analysis software (SIGMA Plot® 9.0 Enzyme Kinetics Module, SSI, San Jose, Calif.). Dixon plot analysis was applied to confirm the competitive inhibition mode.

[1] = tested on: t-PA-induced lysis of whole blood clots; assay: Whole blood fibrinolysis assay (ROTEM, EXTEM with t-PA); type: cell-based, human; settings: for IC50: Ly60, read-out: concentration resulting in 50% suppression of clot lysis (IC50, median [25%; 75% percentile]); for potency at inhibiting clot lysis relative to tranexamic acid: whole blood and plasma clot lysis, versus tranexamic acid
Protocol: (§1) Venous blood was withdrawn from the antecubital vein from healthy volunteers after written informed consent in accordance with local and federal guidelines with approval of the local review board (Ethikkommission, Klinikum Charité, Sauerbruchweg 5, 10117 Berlin). The blood was mixed with 0.11 mol/L sodium citrate (1:10). For ROTEM® analysis, whole citrated blood was used within 8 h after collection. Platelet-rich plasma (PRP) was prepared from citrated blood by centrifugation at 330×g for 10 min at room temperature, platelet-poor plasma (PPP) was collected following centrifugation at 1220×g for 12 min. The PRP was then adjusted to 3×10^8 platelets per mL using the autologous PPP. PRP was maintained at room temperature for less than 4 h before analysis. The remaining PPP was subjected to a high-speed centrifugation at 40,000×g for 30 min at 4° C. to remove any particulate material and was then stored at −70° C. until use.
The antifibrinolytic activity of Compound No. 3 in comparison to aprotinin and tranexamic acid was investigated in plasma and whole blood assays. In both assays, tissue factor was added to initiate rapid clot formation via the extrinsic pathway which produces a clot that remains stable for several hours under normal conditions. Supplementation of plasma or whole blood with tissue-type plasminogen activator (t-PA) before stimulation results in activation of endogenous plasminogen and thus fibrinolysis while the initial clot formation is not impaired. […] A final concentration of 50 U/mL and 100 U/mL in plasma and whole blood, respectively, was chosen to achieve complete lysis within about 60 min. In the presence of antifibrinolytics, clot lysis is delayed in a concentration-dependent manner.
Fibrinolysis in whole blood was studied with rotational thromboelastometry (Luddington, Clin. Lab. Haematol. 27: 81-90, 2005) using a computerized, multi-channel ROTEM® instrument (Pentapharm, Munich, Germany) (Ganter et al., Anesth. Analg. 106: 1366-75, 2008). Activation of test samples accelerated the measurement process and enhanced reproducibility compared with conventional thromboelastography. To allow observation of fibrinolysis, ROTEM® analysis with tissue factor activation (EXTEM) was modified through addition of t-PA (Nielsen et al. Blood Coagul. Fibrinolysis 17: 75-81, 2006). Citrated blood was pre-incubated at 37° C. for 5 min with test compound or saline before tissue factor, CaCl2 and t-PA (100 U/mL final concentration) were added to start the reaction. Fibrinolysis was determined by measuring loss of clot strength with time and was recorded as Ly60 (percentage reduction of the maximum amplitude at 60 min after the onset of clotting). In control samples without inhibitor, clots were lysed completely within 60 min, such that Ly60 was above 90%. By plotting Ly60 versus test compound concentration, IC50 values for each compound were calculated.

[2] = tested on: thrombin generation in platelet-rich human plasma; assay: Thrombin generation assay (Technothrombin TGA); type: cell-based; settings: 100 to 1000 nM, intrinsic and extrinsic activation
Protocol: as §1
The impact of Compound No. 3 and aprotinin on thrombin generation was studied in PRP using the commercially available Technothrombin® TGA kit (Technoclone, Vienna, Austria). This method allows assessment of the dynamics of thrombin generation, i.e. initiation, propagation, and inactivation phases, including the contribution of platelet function to the clotting process (Hemker et al., Pathophysiol. Haemost. Thromb. 33: 4-15, 2003). PRP was spiked with test compounds at different concentrations and pre-warmed to 37° C. in a black 96-well flat-bottom plate (Nunc, Wiesbaden, Germany). Thrombin generation was then initiated by adding a mixture of activator and fluorogenic thrombin substrate. […] Starting immediately after addition of reagents, fluorescence was recorded every 60 s for 120 min using the BMG POLARstar microplate reader (BMG Labtech, Offenburg, Germany) set at 390 nm excitation and 460 nm emission maintaining a temperature of 37° C. […] A typical thrombin generation curve is generated by plotting the first derivative (dF/dt) of the original fluorescence versus time curve and comparing it to a standard run containing known amounts of thrombin in buffer. […]

[3] = human whole blood, t-PA 100 U/mL

T1 sequence (P00742 235-488 limits assumed): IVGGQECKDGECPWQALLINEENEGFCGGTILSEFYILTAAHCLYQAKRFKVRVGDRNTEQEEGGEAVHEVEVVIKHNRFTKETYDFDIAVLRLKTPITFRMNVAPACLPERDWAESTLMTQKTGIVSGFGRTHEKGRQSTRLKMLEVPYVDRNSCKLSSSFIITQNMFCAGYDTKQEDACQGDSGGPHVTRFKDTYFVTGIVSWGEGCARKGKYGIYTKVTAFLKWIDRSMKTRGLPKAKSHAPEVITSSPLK
T1 sequence (P00742 41-179 partner limits assumed): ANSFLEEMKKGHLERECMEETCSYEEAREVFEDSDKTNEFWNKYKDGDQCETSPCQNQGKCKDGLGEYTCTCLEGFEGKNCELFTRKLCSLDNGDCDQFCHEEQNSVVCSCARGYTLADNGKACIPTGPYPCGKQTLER

Compound | Ki (Thrombin) | Ki (Human factor Xa) | stronger inhibition of FXa than aprotinin (Human factor Xa; versus aprotinin) | IC50 [1, 3] | concentration that largely suppresses clot lysis / effective inhibition ([1]; whole blood ROTEM, t-PA-induced lysis) | potency at inhibiting clot lysis relative to tranexamic acid [1] | endogenous thrombin potential [2] | onset of thrombin generation [2] | peak thrombin level [2] | IC50 of clot lysis expressed in KIU/mL ([1]; human whole blood, t-PA 100 U/mL, converted from nM)
N=C(N)c1ccc(CNC(=O)[C@H](Cc2cccc(CN)c2)NC(=O)[C@@H](CCCc2ccccc2)NS(=O)(=O)Cc2cccc(C(=O)O)c2)cc1 [compound 3, 3-HOOC-Bzls-d-Ppg-Phe(3-Ame)-4-Amba×2 acetate] | 1700 ± 200 nM | 45 ± 5 nM | 1200 fold | 150 nM | 600 nM | ~10 fold | no impact | concentration-dependent delay | reduction | 
aprotinin | 76000 nM | 55600 nM |  | 345 nM |  | ~10 fold |  |  |  | 16 KIU/mL
